Measurements from US9226919B2, “Methods for dosing an orally active 1,2,4-oxadiazole” (PTC Therapeutics, Inc., priority 2006, dated 2016).
Like-named read-outs stand apart in the source and are kept apart here.

Experiments:
Format in all cases: in vivo, human
[1] = Plasma pharmacokinetics, Phase 2 Duchenne muscular dystrophy study; details: for AUC(0-t) / Cmax: human, oral
Source text: FIG. 1 provides the plasma 3-[5-(2-fluoro-phenyl)-[1,2,4]oxadiazol-3-yl]-benzoic acid concentration-time profiles and PK parameters from 37 of 38 patients in a Phase 2 Duchenne muscular dystrophy study at 4-, 4-, and 8-mg/kg; 10-, 10-, and 20-mg/kg; and 20-, 20- and 40-mg/kg dose levels. The data from one patient was excluded from analysis due to insufficient data.
3-[5-(2-Fluoro-phenyl)-[1,2,4]oxadiazol-3-yl]-benzoic acid was provided in a formulation described herein. Treatment was administered over 28 days for each treatment cohort. An initial cohort of patients (n=6) were treated daily for 28 days with 3-[5-(2-fluoro-phenyl)-[1,2,4]oxadiazol-3-yl]-benzoic acid at 4-, 4-, and 8-mg/kg TID. After review of the clinical safety results, a second cohort of patients (n=20) were treated daily for 28 days with 3-[5-(2-fluoro-phenyl)-[1,2,4]oxadiazol-3-yl]-benzoic acid at 10-, 10-, and 20-mg/kg TID. Thus, each patient received a total of 84 doses of 3-[5-(2-fluoro-phenyl)-[1,2,4]oxadiazol-3-yl]-benzoic acid.
Blood for 3-[5-(2-fluoro-phenyl)-[1,2,4]oxadiazol-3-yl]-benzoic acid concentrations is collected immediately pre-dose and at 3 hours after administration of the first daily dose of study drug on the second day of each visit.
The study drug dosing and sample collection times are recorded. If a heparinized venous catheter is used for sample collection in order to avoid repeated needle sticks, at least 2 mL of blood is removed and discarded prior to each sample collection in order to avoid heparin contamination of the sample. All attempts are made to collect the blood samples at, or within ±5 minutes of, the scheduled time. The timing of the blood draw is in relation to the study drug dosing time.
Each sample comprises 2 mL of venous blood drawn into a 5-mL Vacutainer® or equivalent tube with K3-EDTA as the anticoagulant. Immediately after collection, the tube is gently inverted 8 to 10 times to mix the anticoagulant with the blood sample. The tube is stored upright on ice until centrifugation; centrifugation and sample processing are performed within 1 hour of sample collection. The plasma fraction is separated by placing the collection tube into a refrigerated centrifuge (4 to 8° C.) in a horizontal rotor (with a swing-out head) for a minimum of 15 minutes at 1500 to 1800 relative centrifugal force (RCF). The plasma fraction is withdrawn by pipette and divided into 2 polypropylene freezing tubes (with each tube receiving approximately equal aliquots). All sample collection and freezing tubes are clearly labeled in a fashion that identifies the subject, the study period, and the collection date and time. Labels are fixed to freezing tubes in a manner that will prevent the label from becoming detached after freezing. After processing, samples are placed into a freezer at approximately −20° C. (or lower).
Samples are stored for analysis of 3-[5-(2-fluoro-phenyl)-[1,2,4]oxadiazol-3-yl]-benzoic acid at the end of the study using a validated high performance liquid chromatography with tandem mass spectrometry (HPLC/MS-MS) method. Thereafter, samples are retained for potential later analyses.

[2] = Body weight, Phase 2 cystic fibrosis study
Source text: 3-[5-(2-Fluoro-phenyl)-[1,2,4]oxadiazol-3-yl]-benzoic acid was provided in a formulation described herein.
Statistically significant results and positive trends for secondary endpoints were also observed. In particular, although the trials were not been powered to detect statistical significant changes in secondary endpoints, statistically significant improvements from study entry to the end of the higher-dose treatment cycle in the patients' mean FEV1, FVC and weight were observed.

[3] = tested on: cough; assay: Quantitative cough assessment (LifeShirt), mean cough frequency over 24 hours; details: FIG. 2; initial improvement, temporary increase, then overall improvement
Protocol: FIG. 2 provides the effect on mean cough frequency over 24 hours by the administration of 3-[5-(2-fluoro-phenyl)-[1,2,4]oxadiazol-3-yl]-benzoic acid to a subject.
The VivoMetrics, Inc. LifeShirt® incorporates motion-sensing transducers, electrodes, a throat microphone, calibration bag, and a 3-axis accelerometer into a lightweight, washable vest that is available for patients≧5 years of age (see LifeShirt® Monitoring System QuickStart Guide, incorporated by reference herein in its entirety). Using integrated input from the motion sensors and microphone, the frequency and intensity of cough can be measured. […]
The device was used to obtain the data set forth in FIG. 2 and will be used to offer substantial supplementary data regarding the clinical benefits of 3-[5-(2-fluoro-phenyl)-[1,2,4]oxadiazol-3-yl]-benzoic acid during Phase 3 testing in CF. […] Without being limited by theory, based on the hypothesis that 3-[5-(2-fluoro-phenyl)-[1,2,4]oxadiazol-3-yl]-benzoic acid-mediated induction of CFTR function would reduce airway obstruction and inflammation, a decrease in cough frequency could serve as a symptomatic integration of these pharmacological effects and might offer a more accurate and quantitative assessment than verbal patient reporting.

[4] = 10, 10, 20 mg/kg TID, N = 20, mean
[5] = 20, 20, 40 mg/kg TID, N = 11, mean

O=C(O)c1cccc(-c2noc(-c3ccccc3F)n2)c1 [3-[5-(2-fluoro-phenyl)-[1,2,4]oxadiazol-3-yl]-benzoic acid]
Cmin, Day 1 ([1]; 4, 4, 8 mg/kg TID, N = 6, mean): 500 ng/mL
Cmin, Day 28 ([1]; 4, 4, 8 mg/kg TID, N = 6, mean): 600 ng/mL
Cmin, Day 1 [1, 4]: 3800 ng/mL
Cmin, Day 28 [1, 4]: 3400 ng/mL
Cmin, Day 1 [1, 5]: 9600 ng/mL
Cmin, Day 28 [1, 5]: 6700 ng/mL
AUC(0-t) ([1]; 8 mg/kg, 4, 4, 8 mg/kg TID, N = 6, mean, read-out: AUC0-24, Day 1): 87 µg·h/mL
AUC(0-t) ([1]; 8 mg/kg, 4, 4, 8 mg/kg TID, N = 6, mean, read-out: AUC0-24, Day 28): 91 µg·h/mL
Cmax ([1]; 8 mg/kg, 4, 4, 8 mg/kg TID, N = 6, mean, read-out: Cmax, Day 1): 10000 ng/mL
Cmax ([1]; 8 mg/kg, 4, 4, 8 mg/kg TID, N = 6, mean, read-out: Cmax, Day 28): 11000 ng/mL
AUC(0-t) ([1]; 20 mg/kg, 10, 10, 20 mg/kg TID, N = 20, mean, read-out: AUC0-24, Day 1): 291 µg·h/mL
AUC(0-t) ([1]; 20 mg/kg, 10, 10, 20 mg/kg TID, N = 20, mean, read-out: AUC0-24, Day 28): 235 µg·h/mL
Cmax ([1]; 20 mg/kg, 10, 10, 20 mg/kg TID, N = 20, mean, read-out: Cmax, Day 1): 27000 ng/mL
Cmax ([1]; 20 mg/kg, 10, 10, 20 mg/kg TID, N = 20, mean, read-out: Cmax, Day 28): 22000 ng/mL
AUC(0-t) ([1]; 40 mg/kg, 20, 20, 40 mg/kg TID, N = 11, mean, read-out: AUC0-24, Day 1): 866 µg·h/mL
AUC(0-t) ([1]; 40 mg/kg, 20, 20, 40 mg/kg TID, N = 11, mean, read-out: AUC0-24, Day 28): 490 µg·h/mL
Cmax ([1]; 40 mg/kg, 20, 20, 40 mg/kg TID, N = 11, mean, read-out: Cmax, Day 1): 76000 ng/mL
Cmax ([1]; 40 mg/kg, 20, 20, 40 mg/kg TID, N = 11, mean, read-out: Cmax, Day 28): 46000 ng/mL
Weight, End of Higher Dose Treatment ([2]; end of higher-dose cycle (10, 10, 20 mg/kg TID), study entry 58.3 kg): 59.0 kg
Weight, Change ([2]; study entry to end of higher dose treatment): 0.7 kg
Mean cough frequency over 24 hours [3]: overall improvement in mean cough frequency
